Two compounds from patent US20120190743A1, “COMPOUNDS FOR TREATING DISORDERS OR DISEASES ASSOCIATED WITH NEUROKININ 2 RECEPTOR ACTIVITY” (UNITED PARAGON ASSOCIATES INC., priority 2009, published 2012) can be followed below.

The structures appear in SMILES notation.

For assay [1], the target named is T1, human NK2 receptor (Homo sapiens, UniProt P21452).
T1 construct: expressed in transfected cells; host or cells: Chinese Hamster Ovary (CHO) cells
T1 sequence (P21452 1-398): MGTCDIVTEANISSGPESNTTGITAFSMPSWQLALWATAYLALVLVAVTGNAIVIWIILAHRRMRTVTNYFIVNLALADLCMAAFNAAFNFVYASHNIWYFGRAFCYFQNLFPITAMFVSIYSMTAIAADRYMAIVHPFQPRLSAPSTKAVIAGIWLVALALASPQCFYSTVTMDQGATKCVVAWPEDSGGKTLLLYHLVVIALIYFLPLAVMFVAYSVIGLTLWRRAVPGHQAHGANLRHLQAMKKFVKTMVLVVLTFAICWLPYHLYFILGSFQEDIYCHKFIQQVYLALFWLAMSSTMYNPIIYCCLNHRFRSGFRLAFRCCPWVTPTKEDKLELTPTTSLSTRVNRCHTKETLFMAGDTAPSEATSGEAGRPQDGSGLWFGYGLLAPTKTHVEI
In words: Cellular/functional Ca2+ flux antagonist assay, CHO-K1 cells expressing recombinant human NK2 receptor. In kind it is cell-based. The following applies: 3×10^−7 M to 1×10^−4 M, agonist [bAla]-NKA (4-10) 0.3 nM, FIG. 12. Here is the method: 6-methyl-myristic acid 2,3-dihydroxypropyl ester was synthesized as described above, and myristic acid 2,3-dihydroxypropyl ester was obtained. They were each prepared as solutions by addition of dimethyl sulfoxide (DMSO) to a concentration of 10 mM. These compounds were then used in cellular/functional calcium flux agonist and antagonist assays to determine the effect the compounds have on human NK2 receptor activity as measured by changes intracellular calcium measurements. These assays were carried out based on the method of Gerard et al.
The NK2 receptor antagonist assay was performed essentially as follows. CHO-K1 cells stably expressing recombinant human NK2 receptor were plated on mixed extracellular matrix overnight in complete media. One hour before the assay, the media was replaced with Hank's Buffered Salt Solution (HBSS) containing 0.1% bovine serum albumin. The cells were then loaded with dye that measures intracellular calcium and baseline measurements of intracellular calcium were taken. […] Fluorescence at 485 nm excitation/515 nm emission was measured every 2 seconds for at least two minutes. The peak height of fluorescence in each of the wells receiving controls, compound 2 or compound 3 was recorded and compared to the peak height of fluorescence in the wells receiving only the agonist. […]
In general terms: A change in cytosolic calcium serves as a functional read-out for many receptors and channels.

For assay [2], the target named is T1, human NK2 receptor. In words: [125I]neurokinin A radioligand binding assay, CHO cells expressing recombinant human NK2 receptor. The note with it: various concentrations. As to the method: The contents of Formulation A capsules were dissolved using various solvents and extracted using four different processes, as described in detail below. […] These isolates were called: Sample #19 Top Isolate, Sample #19 Bottom Isolate, Sample #20 Top Isolate, Sample #20 Bottom Isolate, Fraction X Isolate and Sample #2 Isolate. These isolates were then each tested in the radioligand binding assay.

Consider `CCCCCCCCC(C)CCCCC(=O)OCC(O)CO` (stereo not shown) [6-methyl-myristic acid 2,3-dihydroxypropyl ester], for which the “antagonist activity in functional NK2 receptor antagonist assay (in words)” value in assay [1] is on record as “displayed antagonist activity”. In addition, the “effect on neurokinin A binding to the NK2 receptor (in words)” value in assay [2] is listed as “inhibited the ability of neurokinin A to bind the NK2 receptor in a concentration-dependent manner”.

On to `CCCCCCCCCCCCCC(=O)OCC(O)CO` (stereo not shown) [myristic acid 2,3-dihydroxypropyl ester], for which the “antagonist activity in functional NK2 receptor antagonist assay (in words)” value in assay [1] is “displayed antagonist activity”. The “effect on neurokinin A binding to the NK2 receptor (in words)” value in assay [2] is recorded as “inhibited the ability of neurokinin A to bind the NK2 receptor”.
